The target of one assay is T1, cathepsin L (Homo sapiens, UniProt P07711).
T1 construct: purchased Cosmo Bio
The assay is described as follows: Assay of cathepsin L-inhibitory activity (Z-Phe-Arg-MCA). Type of assay: biochemical. As to conditions: 20 minutes at 30° C., pH 5.5. The procedure: The activity of cathepsin L (Cosmo Bio), a cysteine protease, was assayed by the method described in the literature [Methods in Enzymology, 80, 535-561, 1981]. Thus, to a solution containing 85 mM acetate buffer (pH 5.5), 2 mM dithiothreitol, 1 mM EDTA, 2 μg cathepsin L, and a varying concentration of the test compound was added 50 μl of 20 μM carbobenzoxy-L-phenylalanyl-L-arginine-4-methylcoumaryl-7-amide (Z-Phe-Arg-MCA) to initiate the reaction at the final liquid volume of 200 μl. After 20 minutes of reaction at 30° C., 20 μl of 1 M Tris-HCl (pH 8.0) was added so as to stop the reaction. The amount of liberated 4-methyl-7-aminocoumarin was determined with a fluorospectrometer at an excitation wavelength of 360 nm and a fluorescent emission wave length of 450 nm. Using the value found without addition of the test drug as control and the value found without addition of the enzyme as blank, IC50 was determined in the same manner as above.

The target in the next assay is T2, trypsin (UniProt P00760).
T2 sequence (P00760 1-246): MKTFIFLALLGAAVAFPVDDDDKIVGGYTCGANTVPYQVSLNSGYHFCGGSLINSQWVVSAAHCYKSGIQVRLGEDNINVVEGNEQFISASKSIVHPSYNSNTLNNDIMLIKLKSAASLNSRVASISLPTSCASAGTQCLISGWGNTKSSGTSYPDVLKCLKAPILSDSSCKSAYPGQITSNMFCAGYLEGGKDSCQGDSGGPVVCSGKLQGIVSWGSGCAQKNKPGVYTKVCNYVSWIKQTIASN
The assay is described as follows: Assay of trypsin-inhibitory activity (casein substrate). Format: biochemical. As to conditions: read-out: Trypsin 50% Inhibitory concentration (IC50); 60 minutes at 30° C., pH 8.0. The method, then:
(§1) The activity of papain which is a cysteine protease and of trypsin (Sigma) which is a serine protease was assayed in accordance with the method described in the literature [Anal. Biochem., 208, 387-392, 1993]. Thus, to a solution containing 0.5 mg/ml casein, 50 mM Tris-HCl (pH 8.0), 20 mM dithiothreitol, and 0.2 mM EDTA was added 2.5 μl of dimethyl sulfoxide containing a varying concentration of the test drug as well as 0.03 unit of papain or trypsin to initiate the reaction. The final liquid volume was adjusted to 250 μl. After 60 minutes of reaction at 30° C., 100 μl of the reaction mixture was transferred to another vessel and following addition of 50 μl of purified water and 100 μl of 50% Coumassie brilliant blue solution, the mixture was allowed to stand at room temperature for 15 minutes. The absorbance of the mixture was then measured at 595 nm. Using the value found similarly by adding 2.5 μl of dimethyl sulfoxide not containing the test drug as control and the value found without addition of the enzyme as blank, IC50 was determined in the same manner as above.

The target of another assay is T3, μ-calpain (Homo sapiens, UniProt P07384).
T3 construct: purchased Nakalai Tesque
T3 sequence (P07384 1-714): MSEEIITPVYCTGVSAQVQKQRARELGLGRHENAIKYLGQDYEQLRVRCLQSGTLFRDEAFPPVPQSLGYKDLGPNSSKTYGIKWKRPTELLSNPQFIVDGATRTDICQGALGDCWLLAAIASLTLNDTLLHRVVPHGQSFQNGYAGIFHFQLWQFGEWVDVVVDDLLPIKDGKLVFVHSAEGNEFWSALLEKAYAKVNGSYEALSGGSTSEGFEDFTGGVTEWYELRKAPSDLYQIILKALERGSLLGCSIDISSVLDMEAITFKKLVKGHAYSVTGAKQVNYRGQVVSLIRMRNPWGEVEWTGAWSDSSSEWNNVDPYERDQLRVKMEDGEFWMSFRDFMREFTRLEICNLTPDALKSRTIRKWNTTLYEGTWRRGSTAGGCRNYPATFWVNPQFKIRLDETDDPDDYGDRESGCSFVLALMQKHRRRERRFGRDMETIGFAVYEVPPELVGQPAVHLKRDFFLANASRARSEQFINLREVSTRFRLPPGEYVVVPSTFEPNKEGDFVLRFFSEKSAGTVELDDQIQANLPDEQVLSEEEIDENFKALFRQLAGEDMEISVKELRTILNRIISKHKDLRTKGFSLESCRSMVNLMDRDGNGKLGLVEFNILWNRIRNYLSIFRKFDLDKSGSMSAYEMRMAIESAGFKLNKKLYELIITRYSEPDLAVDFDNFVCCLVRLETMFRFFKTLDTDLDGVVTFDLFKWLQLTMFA
T3 sequence (P04632 1-268 partner): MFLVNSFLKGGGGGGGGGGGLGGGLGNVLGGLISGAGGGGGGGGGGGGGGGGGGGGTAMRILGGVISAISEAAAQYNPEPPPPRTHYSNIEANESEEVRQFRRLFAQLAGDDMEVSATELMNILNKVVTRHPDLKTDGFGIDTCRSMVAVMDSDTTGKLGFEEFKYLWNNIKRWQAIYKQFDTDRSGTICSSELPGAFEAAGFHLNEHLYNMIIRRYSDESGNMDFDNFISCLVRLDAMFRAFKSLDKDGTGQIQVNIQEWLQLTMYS
The experiment in a line: μ-Calpain-inhibitory activity (casein substrate). Type of assay: biochemical. As to conditions: 60 minutes at 30° C., pH 7.4, 4 mM calcium chloride. The method, then:
Thus, to a solution containing 0.5 mg/ml casein, 50 mM Tris-HCl (pH 7.4), 20 mM dithiothreitol, and 4 mM calcium chloride was added 2.5 μl of a dimethyl sulfoxide solution containing a varying concentration of the test drug as well as 0.03 unit of μcalpain to initiate the reaction. The final liquid volume was 250 μl. After 60 minutes of reaction at 30° C., 100 μl of the reaction mixture was transferred to another vessel, to which 50 μl of purified water and 100 μl of 50% Coumassie brilliant blue solution were added. […] As a control, 2.5 μl of dimethyl sulfoxide not containing the test drug was added and the mixture was treated in the same manner as above. […] Similarly, the value found by adding 0.2 mM EDTA in lieu of 4 mM aqueous calcium chloride solution was used as the blank value. […] [formula]

For the next assay, the target named is T4, papain (Carica papaya, UniProt P00784).
T4 sequence (P00784 134-345): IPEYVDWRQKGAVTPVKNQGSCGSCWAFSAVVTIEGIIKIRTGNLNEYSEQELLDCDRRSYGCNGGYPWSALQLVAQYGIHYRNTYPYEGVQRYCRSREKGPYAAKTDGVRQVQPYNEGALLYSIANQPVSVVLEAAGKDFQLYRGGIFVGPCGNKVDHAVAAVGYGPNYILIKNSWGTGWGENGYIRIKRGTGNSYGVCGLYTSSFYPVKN
The assay is described as follows: Assay of papain-inhibitory activity (casein substrate). Format: biochemical. As to conditions: 60 minutes at 30° C., pH 8.0. The method, then: as §1

The subject of assay [1] is angiogenesis in cornea of guinea pig. The assay is described as follows: Angiogenesis in cornea of guinea pig by transplantation of bFGF-containing pellet. Type of assay: in vivo. As to conditions: 9 days posttransplantation; for Observation of cornea with a slit lamp: appearance of newly formed blood vessels compared to the control group: test pellet (27 mer calpastatin peptide 0.03 and 0.1 μmole, leupeptin 0.1 μmole) together with bFGF (500 ng) pellet; for Wet weight of cornea compared to the control group / Amount of albumin in cornea compared to the control group: test pellet together with bFGF pellet; for Amount of albumin in cornea compared to the control group: SDS-PAGE image analysis. The procedure:
(1) Method for Preparing Pellets for Transplantation
A solution (5 μl) of 8% ethylene vinyl acetate copolymer (EVA) in dichloromethane was dropped on a plate made of Tefron, air-dried, and 0.0167 w/v % bFGF (3 μl) was dropped thereon and air-dried. After drying, the obtained product was rounded into a small rod to give a bFGF (500 ng)-containing pellet.
Using a test solution instead of 0.0167 w/v % bFGF, a test solution-containing pellet was prepared in the same manner as above. The test solution-containing pellets were prepared to contain 27 mer calpastatin peptide (0.03 μmole and 0.1 μmule/pellet, Sigma) and leupeptin (0.1 μmole/pellet, PEPTIDE […], INC.).
As a control, a pellet made of EVA alone was prepared and used as a vehicle pellet.
(2) Transplantation of Pellet into Cornea of Guinea Pig
The procedure followed the method of M. Kusaka et al. [Biochem. Biophys. Res. Comm., vol. 174, pp. 1070-1076 (1991)]. That is, male guinea pigs weighing 300-400 g were anesthetized with a 1:1 mixture of Ketalar 50 (ketamin hydrochloride, Sankyo Company, Limited) and Celactal (xylazine hydrochloride, Bayer, Ltd.). A pocket was formed in the intercellular layer of corneal stroma layer of both eyes from corneal limbus to the center of cornea, using a 0.5 mm width ophthalmic spatula. A test solution-containing pellet was inserted into the pocked thus formed, and a bFGF-containing pellet was inserted in adjacency thereto. For prevention of infection, ofloxacin eye ointment [Tarivid eye ointment (ofloxacin 0.3%, manufactured by Santen Pharmaceutical Co., Ltd.) was instilled once immediately after insertion of the pellets. Thereafter, 0.3% lomefloxacin (lomeflon ophthalmic otologic solution, manufactured by Senju Pharmaceutical Co., Ltd.) was instilled once a day for 5 days.
(3) Evaluation of the Effects of Cysteine Protease Inhibitor
The blood vessel newly formed in cornea which is an avascular tissue had high permeability, and the wet weight and plasma content were expected to elevate due to incurrent of plasma components as a result of high permeability. At 9 days posttransplantation of pellet, guinea pigs were euthanized and cornea was collected. The obtained cornea was weighed (wet weight). Then, it was homogenized, and subjected to centrifugation. The obtained water soluble protein was separated by SDS polyacrylamide gel electrophoresis. After electrophoresis, the gel was stained with Coomassie Brilliant Blue. By image analysis (NIH Image 1.31), albumin which is one of the major proteins in plasma was quantitatively assayed. As the standard substance, guinea pig serum albumin was used.

Ends that are not written are not given here. Where only a bound is given, the exact number is not on record here.

T1 sequence (P07711 114-333, species assumed): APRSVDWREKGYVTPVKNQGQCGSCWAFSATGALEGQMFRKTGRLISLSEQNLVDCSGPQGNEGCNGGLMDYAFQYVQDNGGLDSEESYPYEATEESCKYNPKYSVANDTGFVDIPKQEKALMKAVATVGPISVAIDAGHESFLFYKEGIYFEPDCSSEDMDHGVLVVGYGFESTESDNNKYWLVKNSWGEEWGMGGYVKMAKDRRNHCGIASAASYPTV

For `O=C(O)[C@H]1O[C@@H]1C(=O)N[C@@H](Cc1ccccc1)C(=O)N1CCN(c2ccc(F)cc2)CC1` [Compound 11], the IC50 against cathepsin L is 0.012 µM; at trypsin, > 3000 µM; on μ-calpain, 2.9 µM; against papain, 0.11 µM.
On the same counts, the results for `CC(C)C[C@H](NC(=O)[C@H]1O[C@@H]1C(=O)O)C(=O)N1CCN(c2ccc(F)cc2)CC1` [Compound 13] are 0.029 µM, > 3000 µM, 0.81 µM and 0.079 µM.
The matching figures for `Cc1ccc(S(=O)(=O)N2CCN(C(=O)[C@H](CC(C)C)NC(=O)[C@H]3O[C@@H]3C(=O)O)CC2)cc1` [Compound 16, (2s,3s)-3-[[[[(1s)-1-[[4-(4-methylphenylsulfonyl)-1-piperazinyl]carbonyl]-3-methyl]butyl]amino]carbonyl]oxiranecarboxylic acid]: 0.082 µM, > 3000 µM, 0.64 µM and 0.21 µM.
On the same counts, the results for `CC(C)C[C@H](NC(=O)[C@H]1O[C@@H]1C(=O)O)C(=O)N1CCN(c2ccccc2Cl)CC1` [Compound 17, (2s,3s)-3-[[[[(1s)-1-[[4-(2-chlorophenyl)-1-piperazinyl]carbonyl]-3-methyl]butyl]amino]carbonyl]oxiranecarboxylic acid] are 0.027 µM, > 3000 µM, 0.35 µM and 0.062 µM.
Turning to `CC(C)[C@H](NS(=O)(=O)c1ccc(F)cc1)C(=O)N[C@H](C=O)Cc1c[nH]c2ccccc12` [Compound 49, N-(4-fluorophenylsulfonyl)-L-valyl-L-tryptophanal], the IC50 on μ-calpain is 0.023 µM.
The same measure, in the same setting: under `O=C[C@H](Cc1c[nH]c2ccccc12)NC(=O)C1(NS(=O)(=O)c2ccc3ccccc3c2)CCCCC1` [Compound 50, 1-(2-naphthalenesulfonylamino)cyclohexanecarbonyl-L-tryptophanal] stands 0.36 µM; under `CC(C)(C)[C@H](NS(=O)(=O)c1ccc2ccccc2c1)C(=O)N[C@H](C=O)Cc1c[nH]c2ccccc12` [Compound 51, N-(2-naphthalenesulfonyl)-L-tert-leucyl-L-tryptophanal], 1.1 µM; under `CC(C)[C@H](NS(=O)(=O)c1ccc(F)cc1)C(=O)NC(C=O)CC1CCCCC1` (stereo partly drawn) [Compound 52, N-(4-fluorophenylsulfonyl)-L-valyl-L-cyclohexylalaninal], 0.03 µM.
As to `CC(C)[C@H](NS(=O)(=O)c1ccc2ccccc2c1)C(=O)NC(C=O)CC1CCCCC1` (stereo partly drawn) [Compound 53, N-(2-naphthalenesulfonyl)-L-valyl-L-cyclohexylalaninal], the IC50 at μ-calpain is 0.0083 µM.
Still for that read-out and setting: under `CC(C)[C@H](NS(=O)(=O)c1ccc(Cl)cc1)C(=O)NC(C=O)CC1CCCCC1` (stereo partly drawn) [Compound 54, N-(4-chlorophenylsulfonyl)-L-valyl-L-cyclohexylalaninal] stands 0.014 µM.
Regarding `CC(=O)N[C@@H](CC(C)C)C(=O)N[C@@H](CC(C)C)C(=O)N[C@H](C=O)CCCNC(=N)N` [leupeptin], in assay [1], the “Observation of cornea with a slit lamp: appearance of newly formed blood vessels compared to the control group” value was “the degree of appearance was mild”, the “Wet weight of cornea compared to the control group” value is listed as “suppressed increase in the wet weight of cornea” and the “Amount of albumin in cornea compared to the control group” value is listed as “suppressed increase in the amount of albumin in cornea”.
On the same counts, the results for “DPMSSTYIEELGKREVTIPPKYRELLA [27 mer calpastatin peptide, from Sigma]” are “the degree of appearance was mild”, “suppressed increase in the wet weight of cornea” and “suppressed increase in the amount of albumin in cornea”.

The values are drawn from patent US6551999B1, “Angiogenesis inhibitor” (Senju Pharmaceutical Co., Ltd., priority 1995, dated 2003).
